Series [1] concerns differentiated Caco-2 cells. As to the kind of experiment: WST-1 cytotoxicity assay, viability of differentiated Caco-2 cells after 2 h exposure. The conditions noted are these: for concentration that did not significantly affect cell viability: for the mixture: concentration of each AGE. The series is classed as cell-based, Human. The procedure:
(§1) Human colon carcinoma cells (Caco-2 cells) were obtained from the American Type Culture Collection (ATCC, Rockville, MD, USA). Caco-2 cells were cultured in complete culture medium, composed of DMEM GlutaMAX with 10% FBS (v/v), 1% P/S (v/v), and 1% NEAA (v/v) at 37 °C in a 5% (v/v) CO2 incubator. In this study, Caco-2 cells within passages 10–15 were utilized.
The WST-1 assay was used to quantify the viability of differentiated Caco-2 cells upon exposure to the individual AGEs and their equimolar mixture. To this end, Caco-2 cells were seeded in 96-well plates at 3 × 10^4 cells/well (100 μL) and incubated at 37 °C under 5% (v/v) CO2 for 20 days. The complete culture medium was refreshed on each alternate day. After full differentiation, the culture medium was removed, and the cells were washed with HBSS (containing 1% (v/v) HEPES) twice on the testing day. The same volume (100 μL) of HBSS containing a series of concentrations of the different individual test compounds or of a mixture containing all 10 AGEs was added from a 20-times-concentrated stock solution in HBSS. The test concentrations were designed based on the estimated daily intake of total AGEs (0.55–0.66 mg/(kg·day)) and high-exposure scenarios (1.4–1.8 mg/(kg day)). […] After exposure for 2 h, the absorbance at 440 and 620 nm was measured in a plate spectrophotometer (Molecular Devices, San Jose, CA, USA, Spectra Max M2). After measurement, the cell viability was calculated as cell viability (%)=(Atested 440 nm−Atested 620 nm)/(Acontrol 440 nm−Acontrol 620 nm)×100

For the next series, the system named is PepT1. In words: Transport of AGE mixture across Caco-2 cell layer (transwell, apical to basolateral). The conditions noted are these: human, mixture, each AGE 100 μmol/L; for recovery at 2 h, 100 μmol/L: Caco-2, with Gly-Sar 10 mmol/L (apical compartment), Gly-Sar 10 mmol/L, read-out: percentage of the amount added at the apical side at t = 0: recovery; for Papp at 120 min, 100 μmol/L: Caco-2, with Gly-Sar 10 mmol/L (apical), 10 mmol/L Gly-Sar apical (PepT1 inhibition), data from 120 min. The series is classed as in vitro ADME, Human. The procedure:
as §1
(§2) Caco-2 cells were cultured until reaching 50%–60% confluence (undifferentiated Caco-2 cells), followed by trypsinization. Then, cells were seeded at 3 × 10^4 cells per insert in 100 μL of complete culture medium into the transwell inserts of a 24-well transwell plate, and 600 μL of complete culture medium was added to the basolateral compartments. In both the apical and basolateral compartments, the medium was renewed every other day. After 2 weeks, the transepithelial electrical resistance (TEER) value was measured using a Millicell ERS-2 Electrical Resistance System (Burlington, MA, USA) every other day. Only wells with a TEER value of >400 Ω/cm^2 were used for transport experiments. Moreover, the TEER value was measured before and after the transport experiment to ascertain that the Caco-2 cell layer remained intact during the whole transport experiment.
(§3) Transport experiments were performed after 20 days of differentiation of the Caco-2 cells. The culture medium was replaced with HBSS (containing 1% (v/v) HEPES) 30 min prior to testing in both the apical and basolateral compartments. After the 30 min preincubation, 100 μL of HBSS containing a mixture of the 10 different AGEs including CML, CEL, GALA, argpyrimidine, MG-H1, GOLD, GOLA, MOLD, pentosidine, and pyrraline, each at 100 μmol/L, was added to the apical compartment after removing the preincubation medium, while the basolateral medium was replaced by 600 μL of HBSS. […] At 120 min, a 10 μL sample from the apical side was taken for calculating apical side retention (nontransported percentage).
(§4) The apparent permeability coefficient (Papp) value was calculated according to the methodology described by Yee.
(§5) AGEs were quantified by LC-MS using a Shimadzu Nexera XR LC-40D XR UPLC system (Kyoto, Japan) equipped with a UPLC Amide column (100 mm × 2.1 mm, 1.7 μm) without derivatization coupled with a Shimadzu LCMS-8045 triple quadrupole mass spectrometer (Kyoto, Japan). The analytical column was maintained at 40 °C throughout the quantification process. A multistep binary gradient system of water containing 0.1% (v/v) formic acid (solvent A) and acetonitrile containing 0.1% (v/v) formic acid (solvent B) was used. In the whole gradient program, the total proportion of solvents A and B is always equal to 100%. The gradient program was designed as follows: 75% solvent B to 12.5% solvent B from 0 to 10 min, followed by 12.5% solvent B from 10 to 11 min. […] The initial flow rate was set to 0.30 mL/min. Subsequently, it was reduced to 0.25 mL/min at 0.3 min, which was kept until 10 min. Afterward, there was a gradual decrease, reaching 0.15 mL/min at 11 min, and this rate was maintained until 12 min. […] Between 1 and 11 min of gradient running, the line was set to MS, and for the other time periods, the line was set to waste. The retention time and mass spectrometry parameters of individual AGEs are listed in Table S1 and the chromatograms of the samples are shown in Figure S1.

Assay in series [2]: as above
In kind it is in vitro ADME, Human. The conditions noted are these: human; for recovery at 2 h, 100 μmol/L: read-out: percentage of the amount added at the apical side at t = 0: recovery; for Papp at 120 min, 100 μmol/L: data from 120 min. The procedure: as §1, §2, §3, §4, §5

For the next series, the system named is Caco-2 cell layer. Described as above. Particulars: mixture, each AGE 100 μmol/L, 2 h. The series is classed as in vitro ADME, Human. The protocol: as §1, §2, §3, §4, §5
The subject of a further series is Caco-2 cell monolayer. In words: Accumulation of AGEs in the Caco-2 cell monolayer after transport experiment. The conditions noted are these: mixture, each AGE 100 μmol/L, 2 h; for percentage of the amount added at the apical side at t = 0: accumulation (intracellular): standard treatment. In kind it is in vitro ADME, Human. The procedure:
After the transport experiment, the cell monolayer on the inset membrane was washed three times with HBSS and three times with PBS. […] The samples were subsequently centrifuged at 16 000g for 20 min at 4 °C, and the supernatant was collected for further analysis by LC-MS.
as §5, with “The” for “AGEs were quantified by LC-MS using a Shimadzu Nexera XR LC-40D XR UPLC system (Kyoto, Japan) equipped with a UPLC Amide column (100 mm × 2.1 mm, 1.7 μm) without derivatization coupled with a Shimadzu LCMS-8045 triple quadrupole mass spectrometer (Kyoto, Japan). The”, “100%.” for “100%. The gradient program was designed as follows: 75% solvent B to 12.5% solvent B from 0 to 10 min, followed by 12.5% solvent B from 10 to 11 min.”

[3] abbreviates: Caco-2, 4 °C, mixture, each AGE 100 μmol/L.
Setting [4] is: Caco-2, cytochalasin D pretreatment, mixture, each AGE 100 μmol/L.
Setting [5] is: Caco-2, standard treatment (37 °C), equimolar mixture of 10 AGEs, each 100 μmol/L apical.
[6] abbreviates: Caco-2, standard treatment, mixture, each AGE 100 μmol/L.
Setting [7] is: Caco-2, cytochalasin D 1 μg/mL, 30 min apical preincubation, mixture, each AGE 100 μmol/L.

Read-outs that look alike come from different tables or passages of the source. Marks after values point to notes of the source that are not given here.

Turning to `Cc1nc(NCCC[C@H](N)C(=O)O)nc(C)c1O` [argpyrimidine], in series [1], the “concentration that did not significantly affect cell viability” value was not above 500 µM. Also, the recovery at 2 h, 100 μmol/L came out at 94.6 ± 5.2% in the series on PepT1, 87.4 ± 5.4% in series [2] (setting [3]), 94.7 ± 5.4% in series [2] (setting [4]) and 91.8 ± 5.9% in series [2] (setting [6]). For the same compound, the apparent permeability coefficient (Papp) at 120 min, 100 μmol/L turned out to be 0.141 ×10⁻⁶ cm/s with PepT1, 0.099 ×10⁻⁶ cm/s in series [2] (setting [3]), 0.145 ×10⁻⁶ cm/s in series [2] (setting [5]) and 0.395 ×10⁻⁶ cm/s in series [2] (setting [7]). Further, the “percentage of the amount added at the apical side at t = 0: apical side” value in the series on Caco-2 cell layer (4 °C) is recorded as 87.1 ± 5.4 ^b %; in the series on Caco-2 cell layer (Gly-Sar 10 mmol/L), 93.8 ± 5.0 ^a %; with Caco-2 cell layer (cytochalasin D pretreatment), 93.3 ± 5.2 ^a %. For the same compound, the “percentage of the amount added at the apical side at t = 0: basolateral side” value in the series on Caco-2 cell layer (4 °C) is 0.2 ± 0.1 ^b %; with Caco-2 cell layer (Gly-Sar 10 mmol/L), 0.3 ± 0.1 ^b %; with Caco-2 cell layer (cytochalasin D pretreatment), 0.9 ± 0.6 ^a %. For the same compound, the “percentage of the amount added at the apical side at t = 0: apical side (nontransported)” value (“percentage … (nontransported)” below) with Caco-2 cell layer (standard treatment) was 91.2 ± 5.9 ^ab %. In addition, the “percentage of the amount added at the apical side at t = 0: accumulation” value is on record as 0.0 ± 0.0 ^b % with Caco-2 cell monolayer (4 °C), 0.5 ± 0.2 ^a % with Caco-2 cell monolayer (Gly-Sar 10 mmol/L) and 0.5 ± 0.3 ^a % in the series on Caco-2 cell monolayer (cytochalasin D pretreatment). In addition, the “percentage of the amount added at the apical side at t = 0: accumulation (intracellular)” value with Caco-2 cell monolayer is recorded as 0.2 ± 0.2 ^b %.
With `N[C@@H](CCCC[n+]1cccc2[nH]c(NCCC[C@H](N)C(=O)O)nc21)C(=O)O` [pentosidine], the “concentration that did not significantly affect cell viability” value in series [1] was not above 500 µM. In addition, the recovery at 2 h, 100 μmol/L in the series with PepT1 was 93 ± 10.5%; in series [2] (setting [3]), 83.3 ± 6.6%; in series [2] (setting [4]), 92.6 ± 14.5%; in series [2] (setting [6]), 96.9 ± 12.3%. Besides, the Papp at 120 min, 100 μmol/L in the series with PepT1 is 0.061 ×10⁻⁶ cm/s; in series [2] (setting [3]) it was 0.054 ×10⁻⁶ cm/s; in series [2] (setting [5]), 0.083 ×10⁻⁶ cm/s; in series [2] (setting [7]), 0.278 ×10⁻⁶ cm/s. Besides, the “percentage of the amount added at the apical side at t = 0: apical side” value in the series on Caco-2 cell layer (4 °C) is recorded as 83.2 ± 6.7 ^a %; in the series on Caco-2 cell layer (Gly-Sar 10 mmol/L), 92.8 ± 10.4 ^a %; in the series with Caco-2 cell layer (cytochalasin D pretreatment) it was 95.0 ± 14.2 ^a %. Also, the results for the “percentage of the amount added at the apical side at t = 0: basolateral side” value in the series with Caco-2 cell layer (4 °C), in the series with Caco-2 cell layer (Gly-Sar 10 mmol/L) and in the series with Caco-2 cell layer (cytochalasin D pretreatment) were 0.1 ± 0.1 ^b %, 0.1 ± 0.1 ^b % and 0.7 ± 0.4 ^a %, respectively. Besides, the “percentage … (nontransported)” value with Caco-2 cell layer (standard treatment) is recorded as 89.1 ± 12.2 ^a %. Also, the “percentage of the amount added at the apical side at t = 0: accumulation” value with Caco-2 cell monolayer (4 °C), with Caco-2 cell monolayer (Gly-Sar 10 mmol/L) and in the series on Caco-2 cell monolayer (cytochalasin D pretreatment) was 0.0 ± 0.0 ^a % each time.
Take `N[C@@H](CCCCn1c(C=O)ccc1CO)C(=O)O` [pyrraline]: the “effect on cell viability” value in series [1] is “did not affect cell viability up to the highest concentration tested”. Besides, the recovery at 2 h, 100 μmol/L in the series with PepT1 was determined as 86.7 ± 2.8%; in series [2] (setting [3]), 87.1 ± 6.1%; in series [2] (setting [4]), 90.3 ± 4.9%; in series [2] (setting [6]) it was 89 ± 5.6%. Moreover, the figures for the Papp at 120 min, 100 μmol/L (in the series with PepT1; in series [2] (setting [5]); in series [2] (setting [7])) were 0.08 ×10⁻⁶ cm/s, 0.1 ×10⁻⁶ cm/s and 0.334 ×10⁻⁶ cm/s, respectively. Moreover, the “percentage of the amount added at the apical side at t = 0: apical side” value is 86.9 ± 6.0 ^a % in the series on Caco-2 cell layer (4 °C), 86.4 ± 2.8 ^a % in the series with Caco-2 cell layer (Gly-Sar 10 mmol/L) and 89.4 ± 4.7 ^a % with Caco-2 cell layer (cytochalasin D pretreatment). Also, the “percentage of the amount added at the apical side at t = 0: basolateral side” value is given as 0.1 ± 0.1 ^b % with Caco-2 cell layer (4 °C), 0.2 ± 0.1 ^b % with Caco-2 cell layer (Gly-Sar 10 mmol/L) and 0.8 ± 0.5 ^a % with Caco-2 cell layer (cytochalasin D pretreatment). Besides, in the series with Caco-2 cell layer (standard treatment), the “percentage … (nontransported)” value was 88.6 ± 5.5 ^a %. Also, the “percentage of the amount added at the apical side at t = 0: basolateral side (transported)” value in the series on Caco-2 cell layer (standard treatment) is recorded as 0.2 ± 0.1 ^b %. Besides, the “percentage of the amount added at the apical side at t = 0: accumulation” value in the series on Caco-2 cell monolayer (4 °C) is reported as 0.0 ± 0.0 ^b %; in the series with Caco-2 cell monolayer (Gly-Sar 10 mmol/L), 0.1 ± 0.0 ^a %; in the series with Caco-2 cell monolayer (cytochalasin D pretreatment), 0.2 ± 0.1 ^a %. Besides, in the series on Caco-2 cell monolayer, the “percentage of the amount added at the apical side at t = 0: accumulation (intracellular)” value was 0.1 ± 0.1 ^a %.

For the origin of these results see PMC12426922, “Fingerprinting the Intestinal Transport of Low-Molecular-Mass Advanced Glycation End-Products (AGEs) Using a Caco‑2 Transwell Model” (Journal of Agricultural and Food Chemistry, 2025).
